Earlier results on four compounds are cited in patent US20080193567A1, “Pharmaceutical Canscora Diffusa-Containing Composition” (priority 2004, published 2008).

The conditions of data set [1]: interpreted as an effect against stress and anxiety.
The subject of data set [2] is Mycobacterium tuberculosis.
The conditions of data set [3]: animal experiments.

On to `COc1ccc([C@@H]2CCc3c(O[C@@H]4O[C@H](CO)[C@@H](O)[C@H](O)[C@H]4O)cc(O)cc3O2)cc1OC` [Diffutin], for which the adaptogenic effect entry in data set [1] is on record as ““adaptogenic” effect”.

Take `COc1ccc([C@@H]2CCc3c(O[C@@H]4OC(CO)[C@@H](O)[C@H](O)C4O)cc(OC)cc3O2)cc1` (some centres unmarked) [dichotosin]: the adaptogenic effect entry in data set [1] is ““adaptogenic” effect”.

As for `O=c1c2cc(O)c(O)cc2oc2cc(O)c([C@@H]3O[C@H](CO)[C@@H](O)[C@H](O)[C@H]3O)c(O)c12` [magniferin], the “effect against Mycobacterium tuberculosis” value in data set [2] was “small effect”. In data set [3], the spermicidal effect result is recorded as “spermicidal effect”.

For dichotosinin, in data set [1], the adaptogenic effect result is ““adaptogenic” effect”.
